Experiment [1] concerns the target human CMV DNA polymerase UL54 (Human cytomegalovirus (strain AD169) (HHV-5) (Human herpesvirus 5), UniProt P08546). Nature of the experiment: CMV polymerase biochemical assay (molecular beacon-based). On the procedure: (§1) Both human CMV DNA polymerase UL54 and human HSV DNA polymerase UL30 were produced as N-terminal MBP fusion of the full length, wild type recombinant proteins in order to enhance soluble expression in insect cell expression system. The proteins were expressed in sf9 insect cells via baculovirus transduction and cells were harvested after 48 hours. The soluble proteins were purified using the standard Ni-IMAC purification strategy via the N-terminal hexa-Histidine tag, followed by heparin affinity chromatography. Both of the final MBP fusion proteins were more than 90% pure and the yield of UL54 was up to 1.8 mg per liter culture while UL30 was up to 15 mg per liter culture. All purification steps were performed on ice, with buffers chilled on ice and FPLC fraction collectors set at 6° C. […] UL30 protein was stored in buffer containing 20 mM HEPES, pH7.0, 420 mM NaCl, 20% glycerol, 6 mM Imidazole, and 0.8 mM DTT at−80° C.
(§2) DNA polymerase activity was measured using a molecular beacon-based assay, as described in Ma et. al.
(§3) 100 pM CMV polymerase or 625 pM HSV polymerase was added to a buffer containing 20 mM Tris, pH=7.5, 100 mM NaCl, 10 mM MgCl2, 0.01% Tween-20, 0.5 mM EDTA, 10% Sucrose and 1 mM DTT. The inhibitor was pre-incubated with the polymerase for 30 minutes at room temperature. Reactions were initiated by the addition of a mixture containing 1.25 uM dATP, 1.25 uM dCTP, 1.25 uM dTTP, 1.25 uM dGTP, 200 nM Primer B (5′-GAC GGG AAG-3′5′-GAC GGG AAG-3′) and 100 nM molecular beacon (5′-5,6-FAM-CCTCTCCGTGTCTTGTACTTCCCGTCAGAGAGG-BHQ1-3′). For human CMV polymerase the reactions were incubated for 60 minutes at room temperature. For HSV polymerase the reactions were incubated for 20 minutes at room temperature. The reactions were then read on a Perkin-Elmer EnVision 2101 reader (fluorescence) using an excitation of 480 nm and emission of 535 nm. 1050s were determined using an internal Novartis software (Helios).
as §3, with “nm.” for “nm. 1050s were determined using an internal Novartis software (Helios).”

Experiment [2] deals with Luciferase-encoding HCMV, AD169 strain. Nature of the experiment: CMV Luciferase assay (cellular herpesvirus replication). It is filed as cell-based. The following applies: Human betaherpesvirus 5, AD169, read-out: CMV-Luc Cellular EC50. On the procedure:
For all viral assays, 10 mM DMSO stock compound solutions were serially diluted in DMSO at 3.16 fold dilutions in 96-well clear round bottom plates. Compounds were then diluted in assay media at 1:20 and subsequently 10 μL of these dilutions were added to cells for final compound concentrations ranging either from 0.0159 μM to 50 μM in 0.5% DMSO/assay media, or from 0.00318 to 10 μM in 0.5% DMSO/assay media.
The assay uses a Luciferase-encoding HCMV. Luciferase is expressed under the control of a late viral gene (pp28) promoter in the AD169 strain, so that expression of the reporter is dependent on viral DNA replication. Compounds that affect any stage from viral entry to DNA replication result in a change in luciferase levels.
Viral replication in the presence or absence of compounds was measured by luciferase activity according to the following procedure: Neo-natal normal human dermal fibroblast cells (NN-NHDF, from ATCC cat #201-010) were seeded at 9,000 cells/well in 96-well white solid bottom plate at 80 uL/well in assay media: 2% FBS, 4 mM GlutaMax® (Invitrogen cat #35050) in DMEM/high glucose/no glutamine/no phenol red media (Invitrogen cat #31053). After 2 hrs at 37° C., 10 uL of compound diluted in assay media or 5% DMSO (final 0.5% DMSO/well) was added and the plates returned to 37° C. One hour later, 10 uL of virus diluted in assay media was added at a final Multiplicity of infection (MOI) of 1. Plates were incubated at 37° C. for 72 hrs. At 72 hours post-infection (hpi), plates were equilibrated to room temperature. After 25 min, 100 uL Renilla-Glo® Luciferase Assay Reagent (Promega cat # E2750) was added to each well and incubated for 10 min. Plates were covered to protect from light. Luminescence was measured on the PHERAstar FS®.
The following controls were included in the data analysis: No virus, no compound (0.5% DMSO)=IC (maximal inhibitory control); Virus, no compound (0.5% DMSO)=NC (neutral control). Data were analyzed using an internal Novartis software (Helios). The means of the controls (NC, IC) were used to normalize the results to a % scale using the formula: % Control=100−(100*(Sample value−NC)/(IC−NC)).
For each compound, the software derived an EC50 using a 4-parameter logistical model.

The target of experiment [3] is human HSV DNA polymerase UL30 (Human herpesvirus 1 (strain 17) (HHV-1) (Human herpes simplex virus 1), UniProt P04293). The experiment can be described thus: HSV polymerase biochemical assay (molecular beacon-based). On the procedure: as §1, §2, §3
as §3, with “nm.” for “nm. 1050s were determined using an internal Novartis software (Helios).”

As a reminder, the IC50 is the concentration needed to halve the response being measured. Read a high IC50 as lower potency. One may read the EC50 as the midpoint of the concentration-response curve.

With `C[C@H](CCO)S(=O)(=O)C1(CN2CCn3c(ccc(C(=O)NCc4ccc(Cl)cc4)c3=O)C2=O)CC1` (single isomer, unassigned) [Example 6, N-(4-chlorobenzyl)-2-((1-((4-hydroxybutan-2-yl)sulfonyl)cyclopropyl)methyl)-1,6-dioxo-2,3,4,6-tetrahydro-1H-pyrido[1,2-a]pyrazine-7-carboxamide], the IC50 in experiment [1] amounted to 2.4 nM; in experiment [3], 54.8 nM. In addition, the EC50 in experiment [2] came to 92.8 nM.
On to `C[C@@H](CCO)S(=O)(=O)C1(CN2CCn3c(ccc(C(=O)NCc4ccc(Cl)cc4)c3=O)C2=O)CC1` (single isomer, unassigned) [Example 7, N-(4-chlorobenzyl)-2-((1-((4-hydroxybutan-2-yl)sulfonyl)cyclopropyl)methyl)-1,6-dioxo-2,3,4,6-tetrahydro-1H-pyrido[1,2-a]pyrazine-7-carboxamide], for which the IC50 in experiment [1] stood at 1 nM; in experiment [3], 35.6 nM. The EC50 in experiment [2] amounted to 32.8 nM.
With `C[C@@H](CCO)S(=O)(=O)C1(CN2CCn3c(ccc(C(=O)NCc4ccc(C#N)cc4)c3=O)C2=O)CC1` (single isomer, unassigned) [Example 8, N-(4-cyanobenzyl)-2-((1-((4-hydroxybutan-2-yl)sulfonyl)cyclopropyl)methyl)-1,6-dioxo-2,3,4,6-tetrahydro-1H-pyrido[1,2-a]pyrazine-7-carboxamide], the IC50 in experiment [1] came out at 4.6 nM; in experiment [3], 111 nM. Also, the EC50 in experiment [2] was determined as 784 nM.
On the same counts, the results for `C[C@H](CCO)S(=O)(=O)C1(CN2CCn3c(ccc(C(=O)NCc4ccc(C#N)cc4)c3=O)C2=O)CC1` (single isomer, unassigned) [Example 9, N-(4-cyanobenzyl)-2-((1-((4-hydroxybutan-2-yl)sulfonyl)cyclopropyl)methyl)-1,6-dioxo-2,3,4,6-tetrahydro-1H-pyrido[1,2-a]pyrazine-7-carboxamide] are 1.7 nM, 73.8 nM and 167 nM.
On the same counts, the results for `C[S@@+]([O-])C1(CN2CCn3c(ccc(C(=O)NCc4ccc(Cl)cc4)c3=O)C2=O)CC1` (single isomer, unassigned) [Example 67-2, N-(4-chlorobenzyl)-2-((1-(methylsulfinyl)cyclopropyl)methyl)-1,6-dioxo-2,3,4,6-tetrahydro-1H-pyrido[1,2-a]pyrazine-7-carboxamide] are 35.8 nM, 1120 nM and 478 nM.
On the same counts, the results for `C[S@+]([O-])C1(CN2CCn3c(ccc(C(=O)NCc4ccc(Cl)cc4)c3=O)C2=O)CC1` (single isomer, unassigned) [Example 67-3, N-(4-chlorobenzyl)-2-((1-(methylsulfinyl)cyclopropyl)methyl)-1,6-dioxo-2,3,4,6-tetrahydro-1H-pyrido[1,2-a]pyrazine-7-carboxamide] are 292 nM, 13100 nM and 7250 nM.
For the compound `C[S@@](=N)(=O)C1(CN2CCn3c(ccc(C(=O)NCc4ccc(Cl)cc4)c3=O)C2=O)CC1` (single isomer, unassigned) [Example 96-1], the IC50 worked out at 12.6 nM in experiment [1] and 372 nM in experiment [3]. Further, the EC50 in experiment [2] amounted to 244 nM.
Turning to `C[S@](=N)(=O)C1(CN2CCn3c(ccc(C(=O)NCc4ccc(Cl)cc4)c3=O)C2=O)CC1` (single isomer, unassigned) [Example 96-2], the IC50 turned out to be 66.5 nM in experiment [1] and 1920 nM in experiment [3]. Moreover, the EC50 in experiment [2] was 847 nM.
As to `N#Cc1ccc(CNC(=O)c2ccc3n(c2=O)CCN(CC2(S(=O)(=O)[C@H]4CC4(F)F)CC2)C3=O)cc1` (single isomer, unassigned) [Example 100-1], the IC50 in experiment [1] was found to be 1.4 nM; in experiment [3] it was 48.2 nM. Further, in experiment [2], the EC50 stood at 93.6 nM.
`CC(CCO)S(=O)(=O)C1(CN2CCn3c(ccc(C(=O)NCc4ccc(Cl)cc4)c3=O)C2=O)CC1` (centres unmarked) [Example 4, N-(4-chlorobenzyl)-2-((1-((4-hydroxybutan-2-yl)sulfonyl)cyclopropyl)methyl)-1,6-dioxo-2,3,4,6-tetrahydro-1H-pyrido[1,2-a]pyrazine-7-carboxamide] came in with an IC50 in experiment [1] of 0.4 nM. Moreover, the EC50 in experiment [2] came to 40.4 nM.
Regarding `CCN1CCn2c(ccc(C(=O)NCc3ccc(Cl)cc3)c2=O)C1=O` [Example 113, N-(4-chlorobenzyl)-2-ethyl-1,6-dioxo-2,3,4,6-tetrahydro-1H-pyrido[1,2-a]pyrazine-7-carboxamide], the IC50 in experiment [1] is 3130 nM; in experiment [3], 23600 nM.
`CN1CCn2c(ccc(C(=O)NCc3ccc(Cl)cc3)c2=O)C1=O` [Example 114, N-(4-chlorobenzyl)-2-methyl-1,6-dioxo-2,3,4,6-tetrahydro-1H-pyrido[1,2-a]pyrazine-7-carboxamide]: the IC50 was 3990 nM in experiment [1] and 25000 nM in experiment [3].
In the case of `CN(CCN1CCn2c(c(Br)cc(C(=O)NCc3ccc(Cl)cc3)c2=O)C1=O)S(C)(=O)=O` [Example 122, 9-bromo-N-(4-chlorobenzyl)-2-(2-(N-methylmethylsulfonamido)ethyl)-1,6-dioxo-1,3,4,6-tetrahydro-2H-pyrido[1,2-a]pyrazine-7-carboxamide], the 50% inhibitory concentration (IC50) worked out at 350 nM in experiment [1] and 5050 nM in experiment [3].
On the same counts, the results for `CS(=O)(=O)CCCN1CCn2c(c(Br)cc(C(=O)NCc3ccc(Cl)cc3)c2=O)C1=O` [Example 123, 9-bromo-N-(4-chlorobenzyl)-2-(3-(methylsulfonyl)propyl)-1,6-dioxo-1,3,4,6-tetrahydro-2H-pyrido[1,2-a]pyrazine-7-carboxamide] are 373 nM and 1890 nM.
For `CS(=O)(=O)CCCN1CCn2c(c(CF)cc(C(=O)NCc3ccc(Cl)cc3)c2=O)C1=O` [Example 142] the same measures were 351 nM and 2160 nM.
In turn, `COC1(S(=O)(=O)C2(CN3CCn4c(ccc(C(=O)NCc5ccc(Cl)cc5)c4=O)C3=O)CC2)CC1` [Example 188] returned an IC50 in experiment [1] of 0.8 nM. In addition, in experiment [2], the EC50 turned out to be 11.6 nM.

The values are drawn from patent US12466821B2 (Novartis AG, priority 2018, dated 2025).
